Bridge positions count the residues as written; N and C are the ends. Square brackets hold non-standard residues; d marks the D form. Peptide text beside a SMILES is read from it. I, II: the chains in the order shown. * marks the point of attachment. Palmitoyl = CCCCCCCCCCCCCCCC(=O)*; PEG3 = NCCOCCOCCOCCC(=O)O; Dap = NC[C@H](N)C(=O)O
Biological target: T1, human MuSK (Homo sapiens, UniProt O15146)
T1 construct: fused downstream of the extracellular portion (amino acids 1-493) of human MuSK cDNA clone; made in house; host or cells: Expi293 cells; unpurified culture supernatant used
T1 sequence (O15146 24-493) 1: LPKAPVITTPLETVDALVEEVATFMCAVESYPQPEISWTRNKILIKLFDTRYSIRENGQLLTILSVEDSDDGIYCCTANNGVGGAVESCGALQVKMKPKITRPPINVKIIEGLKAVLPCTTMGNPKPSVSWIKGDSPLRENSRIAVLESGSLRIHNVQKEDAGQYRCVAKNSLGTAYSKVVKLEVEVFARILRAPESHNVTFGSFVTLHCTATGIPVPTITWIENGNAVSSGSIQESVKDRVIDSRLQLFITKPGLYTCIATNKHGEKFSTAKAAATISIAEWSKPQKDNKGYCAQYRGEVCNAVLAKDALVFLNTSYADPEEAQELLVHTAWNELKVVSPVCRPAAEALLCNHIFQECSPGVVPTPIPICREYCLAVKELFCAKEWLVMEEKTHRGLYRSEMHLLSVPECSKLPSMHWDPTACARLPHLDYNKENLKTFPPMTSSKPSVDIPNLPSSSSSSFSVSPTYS
T1 sequence (O15146 24-493) 2: T1 sequence (O15146 24-493) 1
Test: MuSK dimerization activity (NanoBiT assay)
Format: biochemical
Method: Expi293 cells were purchased from Thermo Fisher Scientific Inc. and used. For subculture, DMEM (high glucose, GlutaMAX supplement, pyruvate; GIBCO) supplemented with 10% fetal bovine serum (FBS; GIBCO) was used. For passage, after the culture medium was removed by suction, adherent cells were washed with phosphate buffered saline (PBS(-)), and HBSS (GIBCO) containing no Mg^2+ and Ca^2+ and containing 0.25% trypsin and 1 mM ethylenediaminetetraacetic acid was added, and the mixture was reacted in a CO2 incubator (37°C, 5% CO2) for 5 minutes. The detached cells were collected and then centrifuged at 1000 rpm at 4°C for 5 minutes (Sorvall X4R Pro, Thermo Fisher Scientific Inc.). After the supernatant was removed by suction, the cells were suspended in fresh culture medium and expanded in a new culture vessel.
In the steady state, their affinity is estimated to be about 190 µM, and the amount of luminescence is very small even in the presence of substrate. […] A technique for evaluating interactions between two arbitrary proteins by utilizing this property is the NanoBiT assay. […]
The effect of the U-bodies and their complexes on clustering of acetylcholine receptors was evaluated. […]

## CCCCCCCCCCCCCCCC(=O)NCCCC[C@H](NC(=O)[C@H](CNC(=O)CCOCCOCCOCCNC(=O)CNC(=O)[C@@H]1CSCC(=O)N[C@H](Cc2ccc(O)cc2)C(=O)N2CCC[C@H]2C(=O)N[C@@H](CO)C(=O)N[C@@H](Cc2ccc(O)cc2)C(=O)N[C@@H](Cc2c[nH]cn2)C(=O)N[C@@H]([C@@H](C)O)C(=O)N[C@@H](CC(N)=O)C(=O)N[C@@H](C(C)C)C(=O)N[C@@H](C(C)C)C(=O)N[C@@H](C)C(=O)N[C@@H](CO)C(=O)N[C@@H](CC(C)C)C(=O)N[C@@H](CCCCN)C(=O)N[C@@H](CCCNC(=N)N)C(=O)N1)NC(=O)CCOCCOCCOCCNC(=O)CNC(=O)[C@@H]1CSCC(=O)N[C@H](Cc2ccc(O)cc2)C(=O)N2CCC[C@H]2C(=O)N[C@@H](CO)C(=O)N[C@@H](Cc2ccc(O)cc2)C(=O)N[C@@H](Cc2c[nH]cn2)C(=O)N[C@@H]([C@@H](C)O)C(=O)N[C@@H](CC(N)=O)C(=O)N[C@@H](C(C)C)C(=O)N[C@@H](C(C)C)C(=O)N[C@@H](C)C(=O)N[C@@H](CO)C(=O)N[C@@H](CC(C)C)C(=O)N[C@@H](CCCCN)C(=O)N[C@@H](CCCNC(=N)N)C(=O)N1)C(N)=O [MuSK7-pal] (I: {CH2CO}-[dY]PSYHTNVVASLKRCG[PEG3][Dap]K(Palmitoyl)-NH2 / II: {CH2CO}-[dY]PSYHTNVVASLKRCG[PEG3]; amide I:18-II:C; thioether I:N-I:15, II:N-II:15)
Compound concentration exceeded 40 nM
  MuSK dimerization: conversely tended to decrease
Concentration range from the pM order to 40 nM
  luminescence (MuSK dimerization): increased in a dose-dependent manner
